Assay results published in PubChem BioAssay (NCI).
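Method: 48-hour compound exposure of cells in 96-well plates, five concentrations, linear interpolation of endpoints. TGI: concentration producing complete growth inhibition.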

What was measured:
Assay in all cases: NCI anticancer screen, dose series, 48 h
[1] = test system: SF-268 CNS
[2] = test system: PC-3 prostate
[3] = test system: HOP-92 NSCLC
[4] = test system: CAKI-1 renal
[5] = test system: MOLT-4 leukemia
[6] = test system: UACC-257 melanoma
[7] = test system: A549 NSCLC
[8] = test system: NCI-H460 lung
[9] = test system: OVCAR-4 ovarian
[10] = test system: ACHN renal
[11] = test system: SNB-19 CNS
[12] = test system: RXF 393 renal
[13] = test system: T-47D breast
[14] = test system: MDA-N
[15] = test system: SK-MEL-28 melanoma
[16] = test system: SF-539 CNS
[17] = test system: SK-OV-3 ovarian
[18] = test system: SK-MEL-5 melanoma
[19] = test system: OVCAR-3 ovarian
[20] = test system: HCT-15 colon
[21] = test system: CCRF-CEM leukemia
[22] = test system: K-562 leukemia
[23] = test system: MALME-3M melanoma
[24] = test system: HCC-2998 colon
[25] = test system: MDA-MB-231 breast
[26] = test system: SNB-75 CNS
[27] = test system: HS 578T breast
[28] = test system: LOX IMVI melanoma
[29] = test system: HCT-116 colon
[30] = test system: EKVX NSCLC
[31] = test system: HT29 colon
[32] = test system: HL-60(TB) leukemia
[33] = test system: MDA-MB-435
[34] = test system: 786-0 renal
[35] = test system: KM12 colon
[36] = test system: A498 renal
[37] = test system: U251 CNS
[38] = test system: M14 melanoma
[39] = test system: OVCAR-8 ovarian
[40] = test system: SK-MEL-2 melanoma
[41] = test system: TK-10 renal
[42] = test system: IGROV1 ovarian
[43] = test system: DU-145 prostate
[44] = test system: SN12C renal
[45] = test system: NCI-H23 lung
[46] = test system: NCI-H226 lung
[47] = test system: OVCAR-5 ovarian
[48] = test system: SF-295 CNS
[49] = test system: BT-549 breast
[50] = test system: NCI/ADR-RES ovarian
[51] = test system: COLO 205 colon
[52] = test system: UACC-62 melanoma
[53] = test system: HOP-62 NSCLC
[54] = test system: NCI-H522 lung
[55] = test system: UO-31 renal
[56] = test system: SW-620 colon
[57] = test system: RPMI-8226 leukemia
[58] = test system: MCF7 breast
[59] = test system: SR leukemia

## N=c1c2c(=S)n(-c3ccccc3)c(=S)n(-c3ccccc3)c2nc(SCCN2CCCC2)n1-c1ccccc1
[1]
  TGI: 5.69 µM
[2]
  TGI: 3.3 µM
[3]
  TGI: 3.48 µM
[4]
  TGI: 3.11 µM
[5]
  TGI: 3.35 µM
[6]
  TGI: 3.06 µM
[7]
  TGI: 8.5 µM
[8]
  TGI: 3.63 µM
[9]
  TGI: 7.58 µM
[10]
  TGI: 3.26 µM
[11]
  TGI: 31.6 µM
[12]
  TGI: 2.94 µM
[13]
  TGI: 8.44 µM
[14]
  TGI: 4.36 µM
[15]
  TGI: > 38.7 µM
[16]
  TGI: 9.71 µM
[17]
  TGI: 25.3 µM
[18]
  TGI: 12.1 µM
[19]
  TGI: 3.38 µM
[20]
  TGI: 3.86 µM
[21]
  TGI: 1.25 µM
[22]
  TGI: 3.62 µM
[23]
  TGI: 3.87 µM
[24]
  TGI: 2.78 µM
[25]
  TGI: 3.52 µM
[26]
  TGI: 8.29 µM
[27]
  TGI: > 100 µM
[28]
  TGI: 3.46 µM
[29]
  TGI: 4.43 µM
[30]
  TGI: 7.23 µM
[31]
  TGI: 3.6 µM
[32]
  TGI: 0.88 µM
[33]
  TGI: 3.82 µM
[34]
  TGI: 2 µM
[35]
  TGI: 11.6 µM
[36]
  TGI: 23.5 µM
[37]
  TGI: 8.36 µM
[38]
  TGI: 3.44 µM
[39]
  TGI: 4.2 µM
[40]
  TGI: 13.9 µM
[41]
  TGI: 3.03 µM
[42]
  TGI: 3.52 µM
[43]
  TGI: 3.29 µM
[44]
  TGI: 3.46 µM
[45]
  TGI: 9.2 µM
[46]
  TGI: 18.4 µM
[47]
  TGI: 32.1 µM
[48]
  TGI: 32.9 µM
[49]
  TGI: 5.13 µM
[50]
  TGI: 42.1 µM
[51]
  TGI: 3.17 µM
[52]
  TGI: 3.04 µM
[53]
  TGI: 12.4 µM
[54]
  TGI: 3.71 µM

## NC1=Nc2cc(Cl)ccc2Sc2nc3ccccc3n21
[1]
  TGI: > 100 µM
[2]
  TGI: > 100 µM
[3]
  TGI: 71 µM
[4]
  TGI: > 100 µM
[5]
  TGI: > 100 µM
[6]
  TGI: > 100 µM
[55]
  TGI: > 100 µM
[7]
  TGI: > 100 µM
[8]
  TGI: > 100 µM
[9]
  TGI: > 100 µM
[10]
  TGI: > 100 µM
[11]
  TGI: > 100 µM
[12]
  TGI: > 100 µM
[13]
  TGI: > 100 µM
[14]
  TGI: > 100 µM
[15]
  TGI: > 100 µM
[16]
  TGI: > 100 µM
[17]
  TGI: > 100 µM
[18]
  TGI: > 100 µM
[19]
  TGI: > 100 µM
[20]
  TGI: > 100 µM
[21]
  TGI: 19.4 µM
[22]
  TGI: > 100 µM
[56]
  TGI: > 100 µM
[23]
  TGI: > 100 µM
[24]
  TGI: > 100 µM
[25]
  TGI: > 100 µM
[26]
  TGI: > 86.4 µM
[27]
  TGI: > 100 µM
[28]
  TGI: > 100 µM
[30]
  TGI: > 100 µM
[31]
  TGI: > 100 µM
[32]
  TGI: 7.49 µM
[33]
  TGI: > 100 µM
[34]
  TGI: > 100 µM
[35]
  TGI: > 100 µM
[36]
  TGI: > 100 µM
[37]
  TGI: > 100 µM
[38]
  TGI: > 100 µM
[39]
  TGI: > 100 µM
[40]
  TGI: > 100 µM
[41]
  TGI: > 100 µM
[42]
  TGI: > 100 µM
[43]
  TGI: > 100 µM
[44]
  TGI: > 100 µM
[45]
  TGI: > 100 µM
[57]
  TGI: > 100 µM
[46]
  TGI: > 100 µM
[47]
  TGI: > 100 µM
[48]
  TGI: > 100 µM
[49]
  TGI: > 100 µM
[50]
  TGI: > 100 µM
[51]
  TGI: > 100 µM
[52]
  TGI: > 100 µM
[53]
  TGI: > 100 µM
[58]
  TGI: > 100 µM
[54]
  TGI: > 100 µM

## COc1c(-c2nc3nc(N4CCN(C)CC4)ccc3[nH]2)cc(OC)c2c1nc(COC(C)=O)n2C
[1]
  TGI: > 100 µM
[2]
  TGI: > 100 µM
[3]
  TGI: > 100 µM
[4]
  TGI: > 100 µM
[5]
  TGI: > 100 µM
[6]
  TGI: > 100 µM
[55]
  TGI: > 100 µM
[7]
  TGI: > 100 µM
[9]
  TGI: > 100 µM
[10]
  TGI: > 100 µM
[11]
  TGI: > 100 µM
[12]
  TGI: > 100 µM
[13]
  TGI: > 100 µM
[14]
  TGI: > 100 µM
[17]
  TGI: > 100 µM
[18]
  TGI: > 100 µM
[19]
  TGI: > 100 µM
[20]
  TGI: > 100 µM
[22]
  TGI: > 100 µM
[23]
  TGI: > 100 µM
[25]
  TGI: > 100 µM
[27]
  TGI: > 100 µM
[28]
  TGI: > 100 µM
[29]
  TGI: > 100 µM
[30]
  TGI: > 100 µM
[31]
  TGI: > 100 µM
[33]
  TGI: > 100 µM
[34]
  TGI: > 100 µM
[35]
  TGI: > 100 µM
[36]
  TGI: > 100 µM
[37]
  TGI: > 100 µM
[38]
  TGI: > 100 µM
[39]
  TGI: > 100 µM
[40]
  TGI: > 100 µM
[41]
  TGI: 0.0263 µM
[42]
  TGI: > 100 µM
[43]
  TGI: > 100 µM
[44]
  TGI: > 100 µM
[45]
  TGI: > 100 µM
[46]
  TGI: > 100 µM
[47]
  TGI: > 100 µM
[48]
  TGI: > 100 µM
[49]
  TGI: > 100 µM
[50]
  TGI: > 100 µM
[51]
  TGI: > 100 µM
[52]
  TGI: > 100 µM
[53]
  TGI: > 100 µM
[58]
  TGI: > 100 µM
[54]
  TGI: > 100 µM

## S=c1[nH]n2c(CCCCCCCCc3nnc4sc(=S)[nH]n34)nnc2s1
[1]
  TGI: > 100 µM
[2]
  TGI: > 100 µM
[3]
  TGI: > 100 µM
[4]
  TGI: > 100 µM
[5]
  TGI: > 100 µM
[6]
  TGI: > 100 µM
[55]
  TGI: > 100 µM
[7]
  TGI: > 100 µM
[8]
  TGI: > 100 µM
[9]
  TGI: > 100 µM
[10]
  TGI: > 100 µM
[11]
  TGI: > 100 µM
[13]
  TGI: > 100 µM
[14]
  TGI: > 100 µM
[15]
  TGI: > 100 µM
[16]
  TGI: > 100 µM
[17]
  TGI: > 100 µM
[19]
  TGI: > 100 µM
[20]
  TGI: > 100 µM
[21]
  TGI: > 100 µM
[22]
  TGI: > 100 µM
[56]
  TGI: > 100 µM
[59]
  TGI: > 100 µM
[23]
  TGI: > 100 µM
[24]
  TGI: > 100 µM
[25]
  TGI: > 100 µM
[26]
  TGI: > 100 µM
[29]
  TGI: > 100 µM
[30]
  TGI: > 100 µM
[31]
  TGI: > 100 µM
[32]
  TGI: > 100 µM
[33]
  TGI: > 100 µM
[34]
  TGI: > 100 µM
[35]
  TGI: > 100 µM
[36]
  TGI: > 100 µM
[37]
  TGI: > 100 µM
[38]
  TGI: > 100 µM
[39]
  TGI: > 100 µM
[40]
  TGI: > 100 µM
[42]
  TGI: > 100 µM
[43]
  TGI: > 100 µM
[44]
  TGI: > 100 µM
[45]
  TGI: > 100 µM
[57]
  TGI: > 100 µM
[46]
  TGI: > 100 µM
[47]
  TGI: > 100 µM
[48]
  TGI: > 100 µM
[49]
  TGI: > 100 µM
[50]
  TGI: > 100 µM
[51]
  TGI: > 100 µM
[52]
  TGI: > 100 µM
[53]
  TGI: > 100 µM
[58]
  TGI: > 100 µM
[54]
  TGI: > 100 µM
